The record followed here is ChEMBL document CHEMBL3853318, “Structure-Based Optimization of Potent, Selective, and Orally Bioavailable CDK8 Inhibitors Discovered by High-Throughput Screening” (J Med Chem, 2016).

Molecules are shown by their SMILES. pIC50: −log10 of the molar value.

For orientation: pIC50 means the negative decadic logarithm of the IC50, by convention in mol/L. Usually Papp A→B stands for the apparent permeability from the apical to the basolateral side of a cell layer. In general, efflux ratio refers to a quotient of directional permeabilities that is used to spot active efflux. Usually inhibition stands for the drop in the measured response relative to a control, in per cent.

Data set [1] has as its target CDK8/Cyclin C (Homo sapiens, UniProt P49336). Put plainly: Inhibition of Alexa647 tracer binding to full length recombinant human His-tagged CDK8/cyclin C expressed in Baculovirus expression system preincubated for 20 mins followed by tracer addition and incubated in dark for 60 mins by FRET-based Lanthascreen assay.
Data set [2] addresses Cyclin-dependent kinase 8 (Homo sapiens, UniProt P49336). Put plainly: Inhibition of CDK8 in human 7dF3 cells preincubated for 2 hrs followed by beta-oestradiol addition measured after 24 hrs by luciferase reporter gene assay. Type of data set: cell-based. (In a reporter assay the amount or activity of a reporter protein is the signal.)
Data set [3] in a line: Intrinsic clearance in human liver microsomes at 1 uM preincubated for 5 mins followed by NADPH addition measured after 5 to 30 mins by LC-MS/MS analysis. The following applies: read-out: CLH. Type of data set: ADME. In general terms: Microsomes from liver hold many membrane-bound enzymes, among them those of drug oxidation.
Data set [4] can be described thus: Intrinsic clearance in rat liver microsomes at 1 uM preincubated for 5 mins followed by NADPH addition measured after 5 to 30 mins by LC-MS/MS analysis. Type of data set: ADME. The settings on record: read-out: CLH.
Data set [5] is described as follows: Intrinsic clearance in mouse liver microsomes at 1 uM preincubated for 5 mins followed by NADPH addition measured after 5 to 30 mins by LC-MS/MS analysis. Type of data set: ADME. The following applies: read-out: CLH.
Data set [6] can be described thus: Apparent permeability from apical to basolateral side in human Caco2 cells at 1 uM after 2 hrs by Transwell assay. The settings on record: Caco-2. Type of data set: ADME, cell-based. (Caco-2 cells form a polarised layer with tight junctions and transporters.)
The nature of data set [7]: Efflux ratio of permeability in human Caco2 cells at 1 uM after 2 hrs by Transwell assay. Type of data set: ADME, cell-based. The following applies: Caco-2.
The target in data set [8] is T1, Tyrosine-protein kinase JAK1 (Homo sapiens, UniProt P23458). The data set is described as follows: Inhibition of JAK1 (unknown origin).
Data set [9] concerns the target T2, Tyrosine-protein kinase JAK2 (Homo sapiens, UniProt O60674). Put plainly: Inhibition of JAK2 (unknown origin).
Data set [10] deals with T3, Tyrosine-protein kinase JAK3 (Homo sapiens, UniProt P52333).
T3 sequence (P52333 whole entry): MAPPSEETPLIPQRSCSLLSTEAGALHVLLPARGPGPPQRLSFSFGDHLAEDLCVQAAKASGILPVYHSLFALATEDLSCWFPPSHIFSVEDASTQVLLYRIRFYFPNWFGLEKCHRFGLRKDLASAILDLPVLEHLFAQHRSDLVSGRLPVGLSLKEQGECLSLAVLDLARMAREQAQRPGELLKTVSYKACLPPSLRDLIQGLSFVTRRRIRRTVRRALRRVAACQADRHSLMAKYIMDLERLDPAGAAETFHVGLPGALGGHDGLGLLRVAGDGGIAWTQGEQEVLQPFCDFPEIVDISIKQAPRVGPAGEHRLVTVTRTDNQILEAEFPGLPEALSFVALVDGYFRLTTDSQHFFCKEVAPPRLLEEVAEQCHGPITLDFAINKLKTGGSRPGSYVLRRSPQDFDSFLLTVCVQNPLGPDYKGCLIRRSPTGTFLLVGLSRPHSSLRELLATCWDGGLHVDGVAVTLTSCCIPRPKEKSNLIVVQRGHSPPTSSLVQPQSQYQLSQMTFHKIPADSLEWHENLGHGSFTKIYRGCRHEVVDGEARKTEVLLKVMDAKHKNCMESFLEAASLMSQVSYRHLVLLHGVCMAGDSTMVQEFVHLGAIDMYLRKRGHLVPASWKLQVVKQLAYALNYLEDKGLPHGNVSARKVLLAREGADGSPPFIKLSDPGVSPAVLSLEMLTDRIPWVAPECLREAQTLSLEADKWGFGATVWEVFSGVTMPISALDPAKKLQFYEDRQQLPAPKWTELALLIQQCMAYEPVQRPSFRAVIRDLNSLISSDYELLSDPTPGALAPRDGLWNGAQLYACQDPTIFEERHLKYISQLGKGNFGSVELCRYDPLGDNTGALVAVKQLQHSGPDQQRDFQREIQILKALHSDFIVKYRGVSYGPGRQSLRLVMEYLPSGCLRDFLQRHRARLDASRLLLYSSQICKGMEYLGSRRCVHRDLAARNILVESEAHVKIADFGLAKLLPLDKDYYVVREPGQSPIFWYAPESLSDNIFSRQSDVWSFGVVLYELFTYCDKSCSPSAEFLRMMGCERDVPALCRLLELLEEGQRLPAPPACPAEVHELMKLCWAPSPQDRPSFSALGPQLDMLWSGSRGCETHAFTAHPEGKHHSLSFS
The data set is described as follows: Inhibition of JAK3 (unknown origin).

The target of data set [11] is T4, Rho-associated protein kinase 2 (Homo sapiens, UniProt O75116). The data set is described as follows: Inhibition of ROCK-2 (unknown origin).
Target sequence in this assay (O75116 whole entry): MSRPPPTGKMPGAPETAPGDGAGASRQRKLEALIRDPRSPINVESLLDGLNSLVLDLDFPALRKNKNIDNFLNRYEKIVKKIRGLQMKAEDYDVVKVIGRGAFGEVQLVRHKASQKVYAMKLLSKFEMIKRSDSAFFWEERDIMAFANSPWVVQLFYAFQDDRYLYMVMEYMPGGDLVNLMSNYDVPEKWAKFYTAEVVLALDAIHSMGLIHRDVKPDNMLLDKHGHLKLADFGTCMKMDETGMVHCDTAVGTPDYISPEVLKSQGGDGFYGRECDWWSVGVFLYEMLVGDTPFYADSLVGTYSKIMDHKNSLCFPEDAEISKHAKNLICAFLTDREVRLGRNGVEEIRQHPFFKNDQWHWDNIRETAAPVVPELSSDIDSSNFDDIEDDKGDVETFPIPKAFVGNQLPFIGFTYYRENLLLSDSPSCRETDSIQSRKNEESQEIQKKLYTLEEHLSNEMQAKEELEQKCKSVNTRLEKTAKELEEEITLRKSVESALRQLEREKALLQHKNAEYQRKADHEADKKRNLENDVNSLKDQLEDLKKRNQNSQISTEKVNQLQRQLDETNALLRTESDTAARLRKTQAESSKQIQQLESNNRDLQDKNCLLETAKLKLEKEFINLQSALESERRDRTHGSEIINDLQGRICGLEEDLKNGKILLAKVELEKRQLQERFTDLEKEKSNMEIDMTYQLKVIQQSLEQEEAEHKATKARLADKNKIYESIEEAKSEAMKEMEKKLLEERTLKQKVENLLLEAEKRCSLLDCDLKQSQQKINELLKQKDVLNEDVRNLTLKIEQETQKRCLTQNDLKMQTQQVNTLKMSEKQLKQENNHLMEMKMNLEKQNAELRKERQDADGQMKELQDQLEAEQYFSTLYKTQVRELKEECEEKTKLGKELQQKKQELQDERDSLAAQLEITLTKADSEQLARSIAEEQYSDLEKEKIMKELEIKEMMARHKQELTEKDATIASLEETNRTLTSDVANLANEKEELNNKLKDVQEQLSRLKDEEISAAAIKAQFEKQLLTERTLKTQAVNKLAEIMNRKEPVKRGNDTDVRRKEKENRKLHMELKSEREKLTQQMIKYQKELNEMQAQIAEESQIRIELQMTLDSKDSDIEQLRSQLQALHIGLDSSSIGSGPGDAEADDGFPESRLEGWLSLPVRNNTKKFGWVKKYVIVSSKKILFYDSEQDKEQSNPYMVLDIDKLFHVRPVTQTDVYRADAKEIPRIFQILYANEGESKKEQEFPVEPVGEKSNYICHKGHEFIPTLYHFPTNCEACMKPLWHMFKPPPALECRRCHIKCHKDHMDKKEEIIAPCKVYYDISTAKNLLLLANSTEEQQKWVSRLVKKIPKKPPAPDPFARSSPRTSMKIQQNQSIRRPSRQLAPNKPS
The target of data set [12] is T5, Non-receptor tyrosine-protein kinase TYK2 (Homo sapiens, UniProt P29597). Put plainly: Inhibition of TYK2 (unknown origin).
Data set [13] deals with T1, Tyrosine-protein kinase JAK1. The data set is described as follows: Inhibition of JAK1 (unknown origin) at 1 uM relative to control.
Data set [14] has as its target T2, Tyrosine-protein kinase JAK2. The data set is described as follows: Inhibition of JAK2 (unknown origin) at 1 uM relative to control.
The target of data set [15] is T6, Tyrosine-protein kinase JAK3 (Homo sapiens) (UniProt P52333).
T6 sequence (whole entry): T3 sequence (P52333 whole entry)
The data set is described as follows: Inhibition of JAK3 (unknown origin) at 1 uM relative to control.

The target of data set [16] is T4, Rho-associated protein kinase 2. Put plainly: Inhibition of ROCK-2 (unknown origin) at 1 uM relative to control.
Target sequence in this assay (O75116 whole entry, looked up): as the sequence (O75116 whole entry) above
Data set [17] deals with T5, Non-receptor tyrosine-protein kinase TYK2. Put plainly: Inhibition of TYK2 (unknown origin) at 1 uM relative to control.

T5 sequence (P29597 whole entry): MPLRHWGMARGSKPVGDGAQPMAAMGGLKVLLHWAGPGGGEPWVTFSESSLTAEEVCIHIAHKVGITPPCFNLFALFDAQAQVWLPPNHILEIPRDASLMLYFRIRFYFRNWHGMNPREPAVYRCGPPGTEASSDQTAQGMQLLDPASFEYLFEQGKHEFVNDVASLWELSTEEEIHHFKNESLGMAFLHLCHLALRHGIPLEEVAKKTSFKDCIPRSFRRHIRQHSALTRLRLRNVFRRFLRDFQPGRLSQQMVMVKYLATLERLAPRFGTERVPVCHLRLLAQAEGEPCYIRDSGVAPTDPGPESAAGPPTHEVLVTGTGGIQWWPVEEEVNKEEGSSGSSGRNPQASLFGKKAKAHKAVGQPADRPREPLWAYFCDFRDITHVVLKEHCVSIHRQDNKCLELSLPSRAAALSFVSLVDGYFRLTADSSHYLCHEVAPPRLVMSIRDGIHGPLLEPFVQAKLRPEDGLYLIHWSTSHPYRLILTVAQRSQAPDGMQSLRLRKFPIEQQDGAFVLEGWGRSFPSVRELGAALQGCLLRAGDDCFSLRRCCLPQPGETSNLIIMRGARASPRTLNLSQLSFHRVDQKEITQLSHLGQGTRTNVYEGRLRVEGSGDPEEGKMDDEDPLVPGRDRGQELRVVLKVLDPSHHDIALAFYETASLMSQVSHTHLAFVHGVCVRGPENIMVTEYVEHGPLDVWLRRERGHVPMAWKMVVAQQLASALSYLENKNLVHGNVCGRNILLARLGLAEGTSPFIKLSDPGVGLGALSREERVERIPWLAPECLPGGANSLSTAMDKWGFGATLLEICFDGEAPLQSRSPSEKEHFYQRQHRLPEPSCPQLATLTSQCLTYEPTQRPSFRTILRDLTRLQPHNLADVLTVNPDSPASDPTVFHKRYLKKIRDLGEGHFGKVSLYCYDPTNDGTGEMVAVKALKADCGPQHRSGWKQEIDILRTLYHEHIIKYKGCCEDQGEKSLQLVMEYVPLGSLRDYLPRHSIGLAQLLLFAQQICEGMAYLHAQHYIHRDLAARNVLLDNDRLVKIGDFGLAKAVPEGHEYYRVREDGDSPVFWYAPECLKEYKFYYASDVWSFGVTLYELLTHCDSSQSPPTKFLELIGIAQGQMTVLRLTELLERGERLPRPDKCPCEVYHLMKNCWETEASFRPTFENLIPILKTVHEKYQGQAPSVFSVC
T1 sequence (P23458 whole entry): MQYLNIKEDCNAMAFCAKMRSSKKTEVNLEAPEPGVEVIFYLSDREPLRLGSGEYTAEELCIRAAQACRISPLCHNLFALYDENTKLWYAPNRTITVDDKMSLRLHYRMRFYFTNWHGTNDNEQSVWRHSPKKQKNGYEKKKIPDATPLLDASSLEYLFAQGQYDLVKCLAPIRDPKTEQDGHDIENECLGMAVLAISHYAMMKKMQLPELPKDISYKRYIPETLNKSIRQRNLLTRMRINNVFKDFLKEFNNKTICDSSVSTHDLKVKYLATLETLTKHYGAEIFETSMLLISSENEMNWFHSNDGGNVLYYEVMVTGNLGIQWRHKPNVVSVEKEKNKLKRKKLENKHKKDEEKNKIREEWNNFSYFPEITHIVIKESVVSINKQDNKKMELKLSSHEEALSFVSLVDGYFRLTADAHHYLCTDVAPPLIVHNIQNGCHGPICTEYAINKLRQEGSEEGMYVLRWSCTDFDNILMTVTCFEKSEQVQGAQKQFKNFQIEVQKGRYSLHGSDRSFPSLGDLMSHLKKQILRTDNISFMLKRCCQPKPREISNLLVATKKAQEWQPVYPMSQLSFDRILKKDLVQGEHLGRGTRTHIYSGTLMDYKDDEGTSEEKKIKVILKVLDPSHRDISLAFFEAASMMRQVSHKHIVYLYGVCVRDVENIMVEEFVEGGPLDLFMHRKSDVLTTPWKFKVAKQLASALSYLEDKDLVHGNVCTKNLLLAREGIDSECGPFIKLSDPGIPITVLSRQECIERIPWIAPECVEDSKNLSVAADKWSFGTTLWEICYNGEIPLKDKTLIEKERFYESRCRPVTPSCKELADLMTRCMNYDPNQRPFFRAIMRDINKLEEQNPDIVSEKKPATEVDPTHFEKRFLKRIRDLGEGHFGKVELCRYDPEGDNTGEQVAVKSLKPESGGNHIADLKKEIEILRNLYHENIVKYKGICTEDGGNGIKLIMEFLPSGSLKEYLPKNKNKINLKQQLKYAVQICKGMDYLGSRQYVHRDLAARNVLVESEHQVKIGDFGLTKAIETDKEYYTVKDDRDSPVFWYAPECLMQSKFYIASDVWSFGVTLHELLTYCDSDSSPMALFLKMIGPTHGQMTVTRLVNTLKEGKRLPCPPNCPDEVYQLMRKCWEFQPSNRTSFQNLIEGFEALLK
T2 sequence (O60674 whole entry): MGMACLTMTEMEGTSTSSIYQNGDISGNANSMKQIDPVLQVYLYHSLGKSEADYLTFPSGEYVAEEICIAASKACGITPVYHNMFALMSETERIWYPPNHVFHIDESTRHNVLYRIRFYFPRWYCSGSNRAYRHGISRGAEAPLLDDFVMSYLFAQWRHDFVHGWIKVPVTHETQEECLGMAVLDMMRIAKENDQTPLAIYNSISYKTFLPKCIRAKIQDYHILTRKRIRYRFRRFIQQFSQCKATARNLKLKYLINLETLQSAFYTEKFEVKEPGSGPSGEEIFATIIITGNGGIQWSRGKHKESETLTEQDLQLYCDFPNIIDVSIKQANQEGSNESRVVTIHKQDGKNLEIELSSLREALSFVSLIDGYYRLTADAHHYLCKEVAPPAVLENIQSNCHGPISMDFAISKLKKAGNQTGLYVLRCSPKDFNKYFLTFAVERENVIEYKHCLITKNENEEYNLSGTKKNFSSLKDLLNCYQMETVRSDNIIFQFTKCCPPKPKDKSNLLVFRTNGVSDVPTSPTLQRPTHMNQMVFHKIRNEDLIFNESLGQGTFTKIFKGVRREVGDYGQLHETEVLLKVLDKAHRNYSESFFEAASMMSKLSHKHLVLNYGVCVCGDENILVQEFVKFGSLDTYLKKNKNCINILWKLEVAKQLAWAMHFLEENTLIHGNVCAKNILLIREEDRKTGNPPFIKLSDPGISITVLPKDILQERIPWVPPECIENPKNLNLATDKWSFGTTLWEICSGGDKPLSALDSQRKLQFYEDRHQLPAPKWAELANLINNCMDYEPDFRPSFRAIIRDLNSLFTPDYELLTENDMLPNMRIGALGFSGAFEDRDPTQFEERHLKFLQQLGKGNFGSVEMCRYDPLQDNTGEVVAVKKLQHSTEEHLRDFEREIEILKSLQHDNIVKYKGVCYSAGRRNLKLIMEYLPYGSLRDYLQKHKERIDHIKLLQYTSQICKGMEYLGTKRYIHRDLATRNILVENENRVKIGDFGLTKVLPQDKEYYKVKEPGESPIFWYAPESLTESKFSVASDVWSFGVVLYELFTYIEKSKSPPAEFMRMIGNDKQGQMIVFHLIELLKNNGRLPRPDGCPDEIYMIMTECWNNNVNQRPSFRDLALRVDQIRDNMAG

With `Nc1n[nH]c2ccc(C(=O)N3CCC[C@H]3c3ccc(Cl)cc3)cc12`, the negative-log IC50 (pIC50) in data set [1] is 8.31; in [2], 7.55; in data set [8], 7.05; in data set [9] it was 6.54; in data set [10] it was 6.66; in [11] it was 5.88. In [12], the pIC50 is 6.55. Besides, the microsomal CLint at 1 µM was 23 µL/min/mg in [3], 10 µL/min/mg in data set [4] and 10 µL/min/mg in data set [5]. For the same molecule, in data set [6], the apical-to-basolateral permeability (Papp A→B) at 2 h, 1 µM stood at 33.7 ×10⁻⁶ cm/s. Further, the efflux ratio at 2 h, 1 µM in [7] is 2.2. The inhibition in [13] turned out to be 86%; in [14], 84%; in data set [15] it was 79%; in data set [16] it was 42%; in data set [17] it was 70%.
